The test system of this experiment is CEM cells HIV-1 protection, formazan growth assay. The experiment in a line: NCI AIDS Antiviral Assay. The note with it: for pIC50: measured here: growth of uninfected CEM cells. The method in brief: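 Five concentrations of each compound were applied to infected and uninfected human CEM cells. Protection from HIV-1 was judged from growth measured with a soluble formazan assay.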

pEC50, pIC50: −log10 of the molar value. Calls of active or inactive are those of the source.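 Rule for the calls: active = compounds giving half or more protection of infected cells from virus-caused growth loss, again on retest; inactive = the rest.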

Take `C=C/C=C/NC(=O)OCc1ccccc1`: the result was inactive.
In the case of `O=c1oc(C(C(F)(F)F)C(F)(F)F)nc2ccccc12`, the pEC50 is under 3.70 and the pIC50 was under 3.70.
In the case of `COC(=O)C1=C(C)NC(CF)=C(C(=O)OC)C1c1cccc2c(=O)c3ccccc3oc12` (stereo not given), the pEC50 is under 3.70 and the pIC50 was 5.46.
Consider `CCC(C)C(NC(=O)c1ccccc1SC(=O)OCCCCCl)C(N)=O` (stereo not given), for which the pEC50 is 5.56 and the pIC50 was under 3.70.
The like results for `O=C(O)C12CC3CC(CC(F)(C3)C1)C2` were, in that order, under 3.04 and under 3.04.
As to `O=c1[nH]c2ccc([N+](=O)[O-])cc2nc1/C(=N/Nc1ccccc1)C(O)c1ccco1` (stereo not given), the pEC50 is under 3.36 and the negative logarithm of the IC50 (pIC50) is 3.56.
`COC(=O)N1CC=CC2(CCOCc3ccccc3)CC[C@@](O)(c3ccccc3NC(=O)C(C)(C)C)C(=O)C12` (stereo not given in full): the pEC50 is under 4.45 and the negative-log IC50 (pIC50) was under 4.45.
With `O=C1CC(=O)NC(=NN2C(=O)CSC2C(=O)c2ccco2)N1` (stereo not given), the pEC50 is 4.45 and the pIC50 is 3.24.
Consider `O=C(CC(=O)c1ccccc1)CC(=O)c1ccccc1`, for which the pEC50 was under 4.71 and the pIC50 was under 4.71.
Take `O=c1oc2ccccc2c(O)c1C(c1cnc2ccccc2c1)c1c(O)c2ccccc2oc1=O`: the outcome was inactive.
Turning to `CCCCN(CCC/C=C/OC)C(C#N)c1ccccc1` (stereo not given), the pEC50 was under 3.06 and the pIC50 was under 3.06.
`COc1cc2cc(C(=O)N3CC(CCl)c4c3cc(N(C)C)c3ccccc43)[nH]c2c(OC)c1OC` (stereo not given): the pEC50 is under 6.70 and the negative-log IC50 (pIC50) is 7.89.
With `Cc1c(NC(=O)OCc2ccccc2)no[n+]1[O-]`, the pEC50 is under 3.26 and the pIC50 is 3.89.
The like results for `CC(=O)N=C1N(/C=C2\C(=O)Oc3ccccc3C2=O)C(=O)/C(=C/c2ccco2)N1C` were, in that order, under 3.70 and 4.16.
Consider `Nc1ccc2c(O)c(N=Nc3ccc(-c4ccc(N=Nc5c(S(=O)(=O)O)cc6cc(S(=O)(=O)O)c(N=Nc7cc(Cl)ccc7Cl)c(N)c6c5O)cc4)cc3)c(S(=O)(=O)O)cc2c1`, for which the result was inactive.
On to `CCOC(=O)/C(=C\c1cccc(C#N)c1)P(=O)(OCC)OCC`, for which the pEC50 was under 3.27 and the pIC50 was 4.96.
For `O=C(NNC(=O)c1cccc(C(=O)NNC(=O)c2ccc(Cl)c(Cl)c2)n1)c1ccc(Cl)c(Cl)c1`, in that order: under 3.70 and 5.97.
With `COc1cccc([C@@]2(O)c3c(ccc(O)c3OC)[C@H]2OC)c1OC`, the pEC50 is under 4.80 and the pIC50 is under 4.80.
As for `CO[C@@H]1[C@@H](OC2OC(C)C(OC3CC(C)(O)C(OC(=O)CC(C)C)C(C)O3)C(N(C)C)C2O)[C@@H](CC=O)C[C@@H](C)C(=O)/C=C/C2O[C@H]2C[C@@H](C)OC(=O)C[C@H]1OC(C)=O` (stereo not given in full), the pEC50 is under 3.83 and the pIC50 was 5.11.
For `CCOC(=O)CN1C(=O)c2ccc(NC(=O)C(=O)O)cc2S1(=O)=O`, in that order: under 3.70 and under 3.70.
Take `COc1ccc(/C=C(\C#N)c2ccc([N+](=O)[O-])cc2)cc1[N+](=O)[O-]`: the pEC50 is 3.74 and the pIC50 is 3.71.
For the molecule `O=C1CCCC12CCOC2=O` (stereo not given), the pEC50 was under 2.79 and the pIC50 is under 2.79.
For `Cc1nnc2sc(=S)[nH]n12`, the outcome was inactive.
Take `CCN(CC)c1ccc2cc(S(=O)(=O)c3ccccc3)c(=O)oc2c1`: the result was inactive.
With `CC(C)c1ccc2nc3ccc(C(=O)NCCN(C)C)cn3c(=O)c2c1`, the pEC50 was under 3.70 and the pIC50 was 4.90.
Consider `CN1C/C(=C/c2ccc(N(C)C)cc2)C(=O)/C(=C/c2ccc(N(C)C)cc2)C1`, for which the pEC50 is under 3.70 and the pIC50 was under 3.70.
On to `NC(CO)(CO)CO`, for which the pEC50 was under 3.70 and the pIC50 is under 3.70.
With `CCOP(=O)(CP(=O)(OCC)OCC)OCC.[Cl][Sn]([Cl])([c]1ccccc1)[c]1ccccc1`, the pEC50 was under 4.94 and the pIC50 was 6.22.
The like results for `NC(=O)C(=O)CC(=O)c1ccccc1NC1=CC(=O)C(=O)c2ccccc21` were, in that order, under 4.70 and under 4.70.
Regarding `COc1cc2nc3c(nc2cc1OC)-c1ccccc1C3=O`, the pEC50 is 5.52 and the pIC50 was 5.03.
The like results for `Cc1cccc(C)c1NC(=O)CCc1n[nH]c(=S)o1` were, in that order, under 3.33 and under 3.33.
As to `CC1=CC2C(=O)N(c3ccccc3)C(=O)C2CC1n1[nH]c(=O)n(Cc2ccccc2)c1=O` (stereo not given), the pEC50 is under 3.52 and the pIC50 is under 3.52.
Consider `N#C/C(=C\c1ccccc1Cl)C(=O)c1ccccc1`, for which the pEC50 was under 3.88 and the pIC50 is 4.88.
As for `CC1(CO)NC(C(=O)O)Cc2c1[nH]c1ccccc21` (stereo not given), the pEC50 was under 3.70 and the pIC50 was under 3.70.
For the molecule `COc1ccc(NS(=O)c2ccc(Cl)cc2)cc1` (stereo not given), the pEC50 is under 3.70 and the pIC50 was 4.76.
The like results for `C[N+]1(Cc2ccc([N+](=O)[O-])cc2)CCC(CCCCCCCC2CC[N+](C)(Cc3ccc([N+](=O)[O-])cc3)CC2)CC1` (stereo not given) were, in that order, under 3.70 and 4.84.
The like results for `COC(=O)C(=O)C(C(=O)C(=O)Nc1ccc(C)cc1C)c1nc2ccccc2[nH]c1=O` (stereo not given) were, in that order, under 4.63 and under 4.63.
For `S=C(SSSSC(=S)N(C1CCCCC1)C1CCCCC1)N(C1CCCCC1)C1CCCCC1`, in that order: under 3.70 and 3.90.
With `CC(C)CCCC(C)[C@H]1CC[C@@H]2[C@H]3CC[C@H]4C[C@@H](CCC=C(c5cc(Cl)c(OCc6ccc([N+](=O)[O-])cc6)c(C(=O)OCc6ccc([N+](=O)[O-])cc6)c5)c5cc(Cl)c(OCc6ccc([N+](=O)[O-])cc6)c(C(=O)OCc6ccc([N+](=O)[O-])cc6)c5)CC[C@]4(C)[C@@H]3CC[C@]12C` (stereo not given in full), the pEC50 is 4.63 and the pIC50 is 4.14.
Regarding `CC(=O)O[C@H]1CC[C@@]2(C)C(=CC[C@@H]3C2CC[C@]2(C)Nc4c(cnn4-c4ccccc4)CC32)C1` (stereo not given in full), the outcome was inactive.
Turning to `CC1CN1c1c(C(=O)/C=C/c2ccc(Cl)cc2)c(-c2ccccc2)nn(C)c1=O` (stereo not given), the pEC50 is under 5.05 and the pIC50 was under 5.05.
`CN=c1c2c(c3[nH]c4ccccc4c4cnc1c34)NCCC2=O`: the pEC50 was under 3.70 and the pIC50 was 5.85.
As to `CC1(c2cccc(N)c2)C2C(=O)NC(=O)C1C(=O)NC2=O` (stereo not given), the pEC50 is under 3.48 and the pIC50 was 4.25.
As to `CC(C)=CCN1CCCn2c(=S)[nH]c3cccc(c32)C1=O`, the pEC50 is under 3.70 and the pIC50 was under 3.70.
Take `O=C1C(C2CCCCC2)=C2OCC3COC2(O3)c2ccccc21` (stereo not given): the pEC50 was under 4.13 and the pIC50 is 4.52.
The like results for `O=c1oc2cc(O)ccc2c2oc3cc(O)ccc3c12` were, in that order, under 6.29 and 7.79.
For `Cn1c(NS(=O)(=O)c2ccccc2)nc2ccccc21`, in that order: under 3.70 and under 3.70.
For `CC(=O)OCC1OC(n2c(=O)n(-c3ccccc3)c(=O)c3ccccc32)C(OC(C)=O)C(OC(C)=O)C1OC(C)=O` (stereo not given), in that order: under 4.62 and under 4.62.
`O=C(O)c1ccccc1C(=O)Cc1ccccc1` gave a pEC50 of under 3.70 and a pIC50 of under 3.70.
Consider `Nc1ccc(S(=O)(=O)Nc2ccccc2)cc1`, for which the pEC50 was under 3.70 and the pIC50 is under 3.70.
Take `COC(=O)C1=C2CCC(=O)[C@@]2(C)C(OC(C)=O)C=CC1` (stereo not given in full): the result was inactive.
In the case of `CC(=O)c1ccc(N2C(=O)C3c4[nH]c5ccccc5c4C4CCC(C(C)(C)C)CC4C3C2=O)cc1` (stereo not given), the pEC50 was under 4.95 and the pIC50 is under 4.95.
With `O=C(O)CCC(=O)Oc1ccc(O)c2c1CCCC2=O`, the pEC50 was under 3.47 and the pIC50 was under 3.47.
Regarding `Cc1ccccc1NC(=O)CC(=O)n1nc(-c2ccccc2)c(N=Nc2ccc([N+](=O)[O-])cc2)c1-c1ccccc1`, the pEC50 was under 4.60 and the pIC50 is 4.79.
With `Cc1ccc(/C=C2\CN(C)CC3=C2NC(=S)NC3c2ccc(C)cc2)cc1` (stereo not given), the pEC50 was under 3.70 and the pIC50 is 4.60.
For `Cc1ccc2nc3c(Cl)cc(=O)cc-3sc2c1`, the pEC50 was under 5.12 and the pIC50 was 5.41.
For `COC(=O)c1ccccc1CC(Cc1ccccc1)C(=O)OC` (stereo not given), the result was inactive.
In the case of `CN1C(=O)CC(Sc2ccccc2)c2ccccc21` (stereo not given), the pEC50 is under 3.70 and the pIC50 was 4.44.
For `COc1ccc2c(c1)[n+](=O)c(C(=O)CC(=O)C(=O)Nc1cccc(C)c1C)c(C)n2[O-]`, in that order: under 3.93 and under 3.93.
In the case of `Cn1c(=O)c2nc3c4ccccc4c(=O)n(C)c3nc2n(C)c1=O`, the outcome was inactive.
Consider `CCCC/C=C(/C(O)[C@]1(C)OC(=O)N2CCC[C@H]21)[Si](C)(C)C` (stereo not given in full), for which the pEC50 is under 3.12 and the pIC50 was under 3.12.
In the case of `CCOc1ccccc1NC(=O)/C(=N\NC(C)(C)C)C1C(=O)Nc2ccccc2S1=O` (stereo not given), the pEC50 is under 3.95 and the pIC50 is 4.75.
Take `C[C@H]1[C@@H](c2ccccc2)C12C(=O)NC(=O)NC2=O`: the pEC50 was under 3.70 and the pIC50 was 3.98.
As for `CC(=O)OCCCCN1C(=O)CSc2ccccc21`, the pEC50 was under 3.70 and the pIC50 was under 3.70.
As for `CCCCCCCCCCCC1=C(NCCN)C(=O)C=C(NCCN)C1=O`, the pEC50 was under 5.70 and the pIC50 was under 5.70.
Consider `CCOc1ccc(N=Nc2c(-c3ccccc3)nn(C(=O)CC(=O)Nc3ccccc3Cl)c2-c2ccccc2)cc1`, for which the pEC50 was under 4.48 and the pIC50 is under 4.48.
With `O=S(Nc1ccccc1)c1ccc(-c2ccccc2)cc1` (stereo not given), the pEC50 was under 3.70 and the pIC50 was under 3.70.
With `O=c1oc2ccccc2cc1P(=O)(O)O`, the pEC50 was under 3.70 and the pIC50 is 5.05.
For `O=[N+]([O-])O`, in that order: under 3.70 and under 3.70.
In the case of `CCCC(CCC(=O)O)(CCC(=O)O)[N+](=O)[O-]`, the result was inactive.

Values taken from PubChem BioAssay AID179 (DTP/NCI, 2004).
